{"source": "patent US20120004289A1", "about": "“ANNEXIN A11 AND ASSOCIATED GENES AS BIOMARKERS FOR CANCER” (The Johns Hopkins University, priority 2009, published 2012)", "assay_type_in_all_cases": "cell-based, human", "key": {"2008 cells [1]": {"system": "2008 cells", "test": "Real-time PCR validation of gene expression response to cisplatin", "conditions": "both groups of cells", "description": "2008 cells were cultured in T150 flasks and transfected with A1 or negative control for 2 days. Cells were then collected, counted, and placed into 100-mm dishes. After incubating overnight, transfected cells were at 50% confluence and treated with 10 μM cisplatin (Sigma-Aldrich, St. Louis, Mo.) for 0, 8, 16, and 24 hours and then harvested in two portions for both total RNA and total protein extractions at every single time point. The optimized dose and duration of cisplatin treatment were experimentally determined in a previous study. Total RNA was isolated using TRIZOL reagent (Invitrogen) followed by RNeasy mini kit with DNase on-column digestion (Qiagen, Valencia, Calif.). RNA was quantified with NanoDrop ND-1000 followed by quality assessment with the 2100 Bioanalyzer (Agilent Technologies, Santa Clara, Calif.) according to manufacturer's protocol. […]. One microgram of total RNA was used to generate cDNA using the iScript cDNA Synthesis Kit (Bio-Rad, Hercules, Calif.). […] An experiment consisted of triplicate amplification reactions for each gene product being analyzed. […] The cycle threshold number (CT) was determined for each PCR using iQ5 Real-time PCR Detection System (Bio-Rad). […] Results are expressed as relative abundance of a specific mRNA between control and experimental sample (fold change, mean±SD)."}, "2008 cells [2]": {"system": "2008 cells", "test": "Cell cytotoxicity assay of cisplatin (CCK-8) in siRNA- or control-transfected 2008 cells", "conditions": "72 hours", "description": "(A and B) Cell proliferation assay. 2008 (A) or HEY (B) cells were treated with RNAi (A1) or -Ctr at the concentration of 40 nM for 3 days, respectively, and then plated at 3000 viable cells per well into 96-well plates. Every 24 hours, one plate was subjected to assay by CCK-8 kit. The data in each time point are averaged values from eight replicates (P<0.05). (C) Colony formation assay. 2008 cells were treated in the same way as above for 3 days and then plated at 3000 viable cells per well into six-well plates. Six days after plating, cells were fixed with methanol and stained with 0.1% crystal violet and colonies were counted. The experiment was performed in six replicates (P<0.01). (D) Cell cytotoxicity assay. 2008 cells were treated in same way as above for 3 days and then plated at 3000 viable cells per well into 96-well plates. After incubating overnight, cells were treated with various concentration of cisplatin diluted in 100 μl of conditioned medium (the final concentrations of cisplatin were 0, 1.56, 3.13, 6.25, 12.5, 25, 50, and 100 μg/ml). After continuous incubation for 72 hours, the plates were subjected to assay by CCK-8 kit. The experiment was performed in three replicates (P<0.01). Three independent experiments were performed for each assay. […] Cells were then collected, counted, and plated at 3000 viable cells per well into 96-well plates in a final volume of 100 μl. […]"}, "2008 cells [3]": {"system": "2008 cells", "test": "Time course of gene expression response to cisplatin, Agilent 44K whole genome oligo microarray", "conditions": "10 μM cisplatin", "description": "2008 cells were cultured in T150 flasks and transfected with A1 or negative control for 2 days. Cells were then collected, counted, and placed into 100-mm dishes. After incubating overnight, transfected cells were at 50% confluence and treated with 10 μM cisplatin (Sigma-Aldrich, St. Louis, Mo.) for 0, 8, 16, and 24 hours and then harvested in two portions for both total RNA and total protein extractions at every single time point. The optimized dose and duration of cisplatin treatment were experimentally determined in a previous study. Total RNA was isolated using TRIZOL reagent (Invitrogen) followed by RNeasy mini kit with DNase on-column digestion (Qiagen, Valencia, Calif.). RNA was quantified with NanoDrop ND-1000 followed by quality assessment with the 2100 Bioanalyzer (Agilent Technologies, Santa Clara, Calif.) according to manufacturer's protocol. Total RNA was labeled using Agilent Low RNA Input Fluorescent Linear Amplification Kit (Agilent) following the manufacturer's instruction with minor modifications. Briefly, 0.4 μg of RNA was reverse transcribed into cDNA by MMLV-RT using an oligo dT primer (System Biosciences, Mountain View, Calif.) that incorporated a T7 promoter sequence. The cDNA was then used as a template for in vitro transcription in the presence of T7 RNA polymerase and cyanine-3-labeled CTPs (Perkin Elmer Life Sciences, Boston, Mass.). RNA spike-in controls (Agilent) were added to RNA samples before amplification and labeling. The labeled cRNA was purified using the RNeasy mini kit (Qiagen). A total of 0.825 μg of each Cy3-labeled sample was used for hybridization on Agilent 4×44K whole human genome microarray at 65° C. for 17 hours in a hybridization oven with rotation. After hybridization, slides were washed and dried using stabilization and drying solution according to the Agilent microarray processing protocol. Slides were scanned using the Agilent Microarray Scanner controlled by Agilent Scan Control 7.0 software. Microarray data were extracted with Agilent Feature Extraction 9.5.3.1 software and imported into GeneSpring GX 10 (Agilent). […]"}}, "data": [{"smiles": "N.N.[Cl][Pt][Cl]", "note": "[cisplatin]", "values": [{"measurement": "PCSK9 gene expression (real-time PCR)", "setting": "2008 cells [1]; 10 μM cisplatin, 8, 16 and 24 hours", "value": "decreased at 8 hours but increased at 16 and 24 hours"}, {"measurement": "DHRS2 gene expression (real-time PCR)", "setting": "2008 cells [1]; 10 μM cisplatin, 16 and 24 hours", "value": "down-regulation"}, {"measurement": "fold increase of IC50 in RNAi cells compared with control cells", "setting": "2008 cells [2]", "value": 2.6, "unit": "fold"}, {"measurement": "number of genes upregulated or downregulated more than two-fold vs 0 hour in both groups of cells", "setting": "2008 cells [3]; 8 hours", "value": 6, "unit": "genes"}, {"measurement": "number of genes upregulated or downregulated more than two-fold vs 0 hour in both groups of cells", "setting": "2008 cells [3]; 16 hours", "value": 19, "unit": "genes"}, {"measurement": "number of genes upregulated or downregulated more than two-fold vs 0 hour in both groups of cells", "setting": "2008 cells [3]; 24 hours", "value": 47, "unit": "genes"}]}]}
